In patent US12398120B2, “Substituted hydantoinamides as ADAMTS7 antagonists” (BAYER AKTIENGESELLSCHAFT, priority 2019, dated 2025):
pIC50: −log10 of the molar value.

Target: ADAMTS4 (Homo sapiens (Human), UniProt O75173)
Assay: Selectivity assay for ADAMTS-7 modulators: ADAMTS4 (FRET substrate)
Assay type: biochemical
Settings: ADAMTS4 (R&D 4307-AD) 50 nM, substrate Dabcyl-EEVKAKVQPY-Glu(Edans)-NH2 1 μM, 120 min, 32° C.
Method in brief: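 Activity read as rising fluorescence after a FRET substrate is cleaved by human ADAMTS4, with reactions started by substrate addition to wells holding compound or DMSO. Percent inhibition plotted against concentration gave IC50.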

Sequence of ADAMTS4 (O75173 213-685): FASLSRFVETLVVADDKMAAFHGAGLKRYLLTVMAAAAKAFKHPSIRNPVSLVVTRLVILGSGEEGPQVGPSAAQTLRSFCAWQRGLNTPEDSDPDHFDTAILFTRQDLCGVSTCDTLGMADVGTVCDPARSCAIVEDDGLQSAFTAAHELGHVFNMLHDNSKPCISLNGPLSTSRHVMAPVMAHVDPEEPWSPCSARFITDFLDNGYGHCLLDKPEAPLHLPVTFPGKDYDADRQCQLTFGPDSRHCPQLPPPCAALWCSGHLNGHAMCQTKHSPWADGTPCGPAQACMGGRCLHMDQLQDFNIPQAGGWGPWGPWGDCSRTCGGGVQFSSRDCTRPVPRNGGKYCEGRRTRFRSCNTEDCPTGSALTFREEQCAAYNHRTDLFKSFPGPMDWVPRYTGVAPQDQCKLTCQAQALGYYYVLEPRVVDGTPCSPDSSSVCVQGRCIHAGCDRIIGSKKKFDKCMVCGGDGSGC

pIC50 | Structure (SMILES)
4.89 | O=C1NC(=O)C(CNC(=O)c2ccccc2-c2ccc(C(F)(F)F)cc2)(c2cscn2)N1 (stereo not drawn) [Example 197, Ent-N-{[2,5-Dioxo-4-(1,3-Thiazol-4-Yl)Imidazolidin-4-Yl]Methyl}-4′-(Trifluoromethyl)[Biphenyl]-2-Carboxamide]
4.80 | O=C1NC(=O)C(CNC(=O)c2ccc(F)cc2-c2ccc(C(F)(F)F)cc2)(c2cscn2)N1 (stereo not drawn) [Example 199, Ent-N-{[2,5-Dioxo-4-(1,3-Thiazol-4-Yl)Imidazolidin-4-Yl]Methyl}-5-Fluoro-4′-(Trifluoromethyl)[Biphenyl]-2-Carboxamide]
5.09 | Cc1ccc(-c2ccccc2C(=O)NCC2(c3nccs3)NC(=O)NC2=O)cc1 (stereo not drawn) [Example 201, Ent-N-{[2,5-Dioxo-4-(1,3-Thiazol-2-Yl)Imidazolidin-4-Yl]Methyl}-4′-Methyl[Biphenyl]-2-Carboxamide]
4.34 | Cc1ccc(C(=O)NCC2(C(C)C)NC(=O)NC2=O)c(-c2ccc(C(F)(F)F)cc2)c1 (stereo not drawn) [Example 203, Ent-N-[(4-Isopropyl-2,5-Dioxoimidazolidin-4-Yl)Methyl]-5-Methyl-4′-(Trifluoromethyl)[Biphenyl]-2-Carboxamide]
4.44 | CC(C)C1(CNC(=O)c2ccccc2-c2ccc(C(F)(F)F)cc2)NC(=O)NC1=O (stereo not drawn) [Example 209, Ent-N-[(4-Isopropyl-2,5-Dioxoimidazolidin-4-Yl)Methyl]-4′-(Trifluoromethyl)[Biphenyl]-2-Carboxamide]
4.55 | CC(C)C1(CNC(=O)c2ccccc2-c2ccc(C(F)(F)F)nc2)NC(=O)NC1=O (stereo not drawn) [Example 211, Ent-N-[(4-Isopropyl-2,5-Dioxoimidazolidin-4-Yl)Methyl]-2-[6-(Trifluoromethyl)Pyridin-3-Yl]Benzamide]
5.46 | Cc1ccc(-c2cc(Cl)ccc2C(=O)NC[C@@]2(C3CC3)NC(=O)NC2=O)cc1 [Example 215, 5-Chloro-N-{[(4R)-4-Cyclopropyl-2,5-Dioxoimidazolidin-4-Yl]Methyl}-4′-Methyl[Biphenyl]-2-Carboxamide]
5.04 | O=C1NC(=O)[C@](CNC(=O)c2ccc(Cl)cc2-c2ccc(C(F)(F)F)cc2)(C2CC2)N1 [Example 216, 5-Chloro-N-{[(4R)-4-Cyclopropyl-2,5-Dioxoimidazolidin-4-Yl]Methyl}-4′-(Trifluoromethyl)[1,1′-Biphenyl]-2-Carboxamide]
4.80 | CS(=O)(=O)c1ccc(-c2ccccc2C(=O)NC[C@@]2(C3CC3)NC(=O)NC2=O)cc1 [Example 217, N-{[(4R)-4-Cyclopropyl-2,5-Dioxoimidazolidin-4-Yl]Methyl}-4′-(Methanesulfonyl)[1,1′-Biphenyl]-2-Carboxamide]
5.40 | Cc1ccc(C(=O)NC[C@@]2(C3CC3)NC(=O)NC2=O)c(-c2ccc(C(F)(F)F)cc2)c1 [Example 218, N-{[(4R)-4-Cyclopropyl-2,5-Dioxoimidazolidin-4-Yl]Methyl}-5-Methyl-4′-(Trifluoromethyl)[Biphenyl]-2-Carboxamide]
5.55 | Cc1ccc(-c2ccc(F)cc2C(=O)NC[C@@]2(C3CC3)NC(=O)NC2=O)cc1 [Example 219, N-{[(4R)-4-Cyclopropyl-2,5-Dioxoimidazolidin-4-Yl]Methyl}-4-Fluoro-4-Methyl[Biphenyl]-2-Carboxamide]
5.11 | O=C1NC(=O)[C@](CNC(=O)c2ccccc2-c2ccc(Cl)cc2)(C2CC2)N1 [Example 220, 4′-Chloro-N-{[(4R)-4-Cyclopropyl-2,5-Dioxoimidazolidin-4-Yl]Methyl}[1,1′-Biphenyl]-2-Carboxamide]
5.09 | Cc1ccc(-c2ccccc2C(=O)NC[C@@]2(C3CC3)NC(=O)NC2=O)cc1F [Example 221, N-{[(4R)-4-Cyclopropyl-2,5-Dioxoimidazolidin-4-Yl]Methyl}-3′-Fluoro-4′-Methyl[1,1′-Biphenyl]-2-Carboxamide]
5.52 | Cc1ccc(-c2cccc(Cl)c2C(=O)NC[C@@]2(C3CC3)NC(=O)NC2=O)cc1 [Example 222, 3-Chloro-N-{[(4R)-4-Cyclopropyl-2,5-Dioxoimidazolidin-4-Yl]Methyl}-4′-Methyl[1,1′-Biphenyl]-2-Carboxamide]
4.59 | N#Cc1ccc(-c2ccccc2C(=O)NC[C@@]2(C3CC3)NC(=O)NC2=O)cc1 [Example 223, 4′-Cyano-N-{[(4R)-4-Cyclopropyl-2,5-Dioxoimidazolidin-4-Yl]Methyl}[1,1′-Biphenyl]-2-Carboxamide]
4.72 | O=C1NC(=O)[C@](CNC(=O)c2ccccc2-c2ccc(C(F)(F)F)nc2)(C2CC2)N1 [Example 224, N-{[(4R)-4-Cyclopropyl-2,5-Dioxoimidazolidin-4-Yl]Methyl}-2-[6-(Trifluoromethyl)Pyridin-3-Yl]Benzamide]
4.68 | Cc1ccc(-c2ccccc2C(=O)NC[C@@]2(C3CC3)NC(=O)NC2=O)cc1Cl [Example 225, 3′-Chloro-N-{[(4R)-4-Cyclopropyl-2,5-Dioxoimidazolidin-4-Yl]Methyl}-4′-Methyl[1,1′-Biphenyl]-2-Carboxamide]
< 4.30 | O=C1NC(=O)[C@](CNC(=O)c2ccccc2-c2ccc(C(F)(F)F)c(Cl)c2)(C2CC2)N1 [Example 226, 3′-Chloro-N-{[(4R)-4-Cyclopropyl-2,5-Dioxoimidazolidin-4-Yl]Methyl}-4′-(Trifluoromethyl)[1,1′-Biphenyl]-2-Carboxamide]
4.39 | O=C1NC(=O)[C@](CNC(=O)c2ccccc2-c2ccc(Cl)c(Cl)c2)(C2CC2)N1 [Example 227, 3′,4′-Dichloro-N-{[(4R)-4-Cyclopropyl-2,5-Dioxoimidazolidin-4-Yl]Methyl}[1,1′-Biphenyl]-2-Carboxamide]
4.70 | Cc1ccc(-c2ccccc2C(=O)NC[C@@]2(C3CC3)NC(=O)NC2=O)cn1 [Example 228, N-{[(4R)-4-Cyclopropyl-2,5-Dioxoimidazolidin-4-Yl]Methyl}-2-(6-Methylpyridin-3-Yl)Benzamide]
4.70 | Cc1ccc(-c2cccc(F)c2C(=O)NC[C@@]2(C3CC3)NC(=O)NC2=O)cc1 [Example 229, N-{[(4R)-4-Cyclopropyl-2,5-Dioxoimidazolidin-4-Yl]Methyl}-3-Fluoro-4′-Methyl[1,1′-Biphenyl]-2-Carboxamide]
4.48 | O=C1NC(=O)[C@](CNC(=O)c2c(F)cccc2-c2ccc(C(F)(F)F)cc2)(C2CC2)N1 [Example 230, N-{[(4R)-4-Cyclopropyl-2,5-Dioxoimidazolidin-4-Yl]Methyl}-3-Fluoro-4′-(Trifluoromethyl)[1,1′-Biphenyl]-2-Carboxamide]
5.28 | O=C1NC(=O)[C@](CNC(=O)c2c(Cl)cccc2-c2ccc(Cl)cc2)(C2CC2)N1 [Example 231, 3,4′-Dichloro-N-{[(4R)-4-Cyclopropyl-2,5-Dioxoimidazoidin-4-Yl]Methyl}[1,1′-Biphenyl]-2-Carboxamide]
5.43 | O=C1NC(=O)[C@](CNC(=O)c2ccc(Cl)cc2-c2ccc(Cl)cc2)(C2CC2)N1 [Example 232, 4′,5-Dichloro-N-{[(4R)-4-Cyclopropyl-2,5-Dioxoimidazolidin-4-Yl]Methyl}[1,1′-Biphenyl]-2-Carboxamide]

Structure (SMILES) | pIC50
Cc1ccc(-c2ccccc2C(=O)NCC2(C(C)C)NC(=O)NC2=O)cc1 (stereo not drawn) [Example 205, Ent-N-[(4-Isopropyl-2,5-Dioxoimidazolidin-4-Yl)Methyl]-4′-Methyl[Biphenyl]-2-Carboxamide] | 4.92
